Results as given in patent publication US20220289708A1, “SUBSTITUTED N-PHENYL URACILS, SALTS THEREOF AND THEIR USE AS HERBICIDAL AGENTS” (Bayer Aktiengesellschaft, priority 2019, published 2022).

How the values were obtained:
Format in all cases: in vivo
[1] = test system: Lolium rigidum; test: Post-emergence herbicidal action; settings: application rate 20 g/ha, rated visually after about 3 weeks vs untreated controls
In short: (§1)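 Test plants, raised in sandy loam in the greenhouse, were treated 2 to 3 weeks after sowing at application rates of 20 g/ha or lower. Scoring compared treated with untreated plants roughly 3 weeks on, where 100% meant death and 0% meant no visible effect.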

[2] = test system: Viola tricolor; test: Post-emergence herbicidal action
In short: as §1

[3] = test system: Digitaria sanguinalis; test: Post-emergence herbicidal action; settings: rated visually after about 3 weeks vs untreated controls
In short: as §1

[4] = test system: Pharbitis purpurea; test: Post-emergence herbicidal action; settings: rated visually after about 3 weeks vs untreated controls
In short: as §1

[5] = test system: Setaria viridis; test: Post-emergence herbicidal action; settings: rated visually after about 3 weeks vs untreated controls
In short: as §1

[6] = test system: Avena fatua; test: Post-emergence herbicidal action; settings: application rate 20 g/ha, rated visually after about 3 weeks vs untreated controls
In short: as §1

[7] = test system: Polygonum convolvulus; test: Post-emergence herbicidal action
In short: as §1

[8] = test system: Alopecurus myosuroides; test: Post-emergence herbicidal action; settings: rated visually after about 3 weeks vs untreated controls
In short: as §1

[9] = test system: Amaranthus retroflexus; test: Post-emergence herbicidal action; settings: rated visually after about 3 weeks vs untreated controls
In short: as §1

[10] = test system: Hordeum murinum; test: Post-emergence herbicidal action; settings: application rate 20 g/ha
In short: as §1

[11] = test system: Echinochloa crus-galli; test: Post-emergence herbicidal action; settings: rated visually after about 3 weeks vs untreated controls
In short: as §1

[12] = test system: Stellaria media; test: Post-emergence herbicidal action; settings: application rate 5 g/ha, rated visually after about 3 weeks vs untreated controls
In short: as §1

[13] = test system: Matricaria inodora; test: Post-emergence herbicidal action; settings: rated visually after about 3 weeks vs untreated controls
In short: as §1

[14] = test system: Abutilon theophrasti; test: Post-emergence herbicidal action; settings: rated visually after about 3 weeks vs untreated controls
In short: as §1

[15] = test system: Veronica persica; test: Post-emergence herbicidal action
In short: as §1

[16] = test system: Oryza sativa; test: Post-emergence crop plant compatibility
In short: (§2)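 Greenhouse crop plants in sandy loam sprayed at one-leaf stage (2-3 weeks after sowing) with WP or EC formulations plus 0.5% additive, 600 l/ha water, at 5 g/ha or 20 g/ha. Damage scored visually after about 3 weeks as % versus untreated controls (100% = plants dead).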

[17] = test system: Zea mays; test: Post-emergence crop plant compatibility; settings: application rate 5 g/ha
In short: as §2

| Oryza sativa (efficacy in %) ([16]; application rate 5 g/ha) [%] | Zea mays (efficacy in %) [17] [%] | SMILES | Lolium rigidum (efficacy in %) [1] [%] | Avena fatua (efficacy in %) [6] [%] | Viola tricolor (efficacy in %) ([2]; application rate 20 g/ha) [%] | Digitaria sanguinalis (efficacy in %) ([3]; application rate 20 g/ha) [%] | Pharbitis purpurea (efficacy in %) ([4]; application rate 20 g/ha) [%] | Setaria viridis (efficacy in %) ([5]; application rate 20 g/ha) [%] | Polygonum convolvulus (efficacy in %) ([7]; application rate 20 g/ha) [%] | Alopecurus myosuroides (efficacy in %) ([8]; application rate 20 g/ha) [%] | Amaranthus retroflexus (efficacy in %) ([9]; application rate 20 g/ha) [%] | Echinochloa crus-galli (efficacy in %) ([11]; application rate 20 g/ha) [%] | Matricaria inodora (efficacy in %) ([13]; application rate 20 g/ha) [%] | Veronica persica (efficacy in %) ([15]; application rate 20 g/ha) [%] | also measured |
| --- | --- | --- | --- | --- | --- | --- | --- | --- | --- | --- | --- | --- | --- | --- | --- |
| 20 | 20 | Cn1c(C(F)(F)F)cc(=O)n(-c2cc(Sc3cccnc3SCC(=O)OCC3CCCO3)c(Cl)cc2F)c1=O (stereo not drawn) [I.10-71] | 80 | 80 | – | – | – | – | – | – | – | – | – | – | Viola tricolor (efficacy in %) ([2]; application rate 5 g/ha): 100%; Digitaria sanguinalis (efficacy in %) ([3]; application rate 5 g/ha): 90%; Pharbitis purpurea (efficacy in %) ([4]; application rate 5 g/ha): 100%; Setaria viridis (efficacy in %) ([5]; application rate 5 g/ha): 100%; Polygonum convolvulus (efficacy in %) ([7]; application rate 5 g/ha): 100%; Alopecurus myosuroides (efficacy in %) ([8]; application rate 5 g/ha): 80%; Amaranthus retroflexus (efficacy in %) ([9]; application rate 5 g/ha): 100%; Hordeum murinum (efficacy in %) [10]: 80%; Echinochloa crus-galli (efficacy in %) ([11]; application rate 5 g/ha): 100%; Stellaria media (efficacy in %) [12]: 100%; Matricaria inodora (efficacy in %) ([13]; application rate 5 g/ha): 80%; Abutilon theophrasti (efficacy in %) ([14]; application rate 5 g/ha): 100%; Veronica persica (efficacy in %) ([15]; application rate 5 g/ha): 90% |
| 0 | 10 | COCCOC(=O)COc1ncccc1Oc1cc(-n2c(=O)cc(C(F)(F)F)n(C)c2=O)c(F)cc1[N+](=O)[O-] [I.14-1] | 80 | 80 | 100 | 100 | 100 | 100 | 100 | 90 | 100 | 100 | 100 | 100 | Abutilon theophrasti (efficacy in %) ([14]; application rate 20 g/ha): 100% |
| – | 20 | Cn1c(C(F)(F)F)cc(=O)n(-c2cc(Oc3cccnc3OCC(=O)OC3COC3)c([N+](=O)[O-])cc2F)c1=O [I.14-115] | – | 80 | 100 | 100 | 100 | 100 | 100 | 100 | 100 | 100 | 100 | 100 | Oryza sativa (efficacy in %) ([16]; application rate 20 g/ha): 20% |
